From patent US20080090805A1, “CB-1 MODULATING COMPOUNDS AND THEIR USE” (ACADIA PHARMACEUTICALS INC., priority 2005, published 2008)

Target: native CB1 receptors (Rattus norvegicus, UniProt P20272)
Assay: CB1 receptor rat binding assay ([3H]SR141716A, rat brain membranes)
Details: rat brain membranes, [3H]SR141716A; for Ki: read-out: Binding rat pKi (converted)

Chain of native CB1 receptors (P20272 whole entry): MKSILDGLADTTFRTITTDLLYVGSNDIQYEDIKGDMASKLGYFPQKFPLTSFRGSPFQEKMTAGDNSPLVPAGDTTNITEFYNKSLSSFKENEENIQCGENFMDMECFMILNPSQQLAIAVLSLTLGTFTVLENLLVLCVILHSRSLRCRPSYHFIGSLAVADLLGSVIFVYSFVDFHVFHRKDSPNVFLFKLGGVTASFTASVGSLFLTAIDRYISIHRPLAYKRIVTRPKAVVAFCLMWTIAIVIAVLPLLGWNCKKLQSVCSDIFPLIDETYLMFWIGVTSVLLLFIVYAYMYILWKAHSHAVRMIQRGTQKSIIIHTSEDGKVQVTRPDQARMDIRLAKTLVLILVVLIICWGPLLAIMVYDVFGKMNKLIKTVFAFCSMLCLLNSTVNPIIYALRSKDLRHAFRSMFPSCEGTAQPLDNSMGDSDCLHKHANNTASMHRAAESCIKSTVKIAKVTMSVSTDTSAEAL

Row | Binding rat Inh % | Ki | SMILES
1 | 94% | 2 nM | O=C(NCc1cccs1)c1ccc2c(c1)N=C(c1ccc(Cl)cc1)c1ccccc1S2 [drawing 1279]
2 | – | 2 nM | O=C(NCCc1ccc(Cl)cc1)c1ccc2c(c1)N=C(C1CCCCC1)c1ccccc1S2 [drawing 1280]
3 | – | 2 nM | O=C(NCCc1ccc(Cl)cc1)c1ccc2c(c1)N=C(c1cccc(Cl)c1)c1ccccc1S2 [drawing 1281]
4 | 91% | 2 nM | COc1ccc(C2=Nc3cc(C(=O)NC4CCCCC4)ccc3Sc3ccccc32)cc1 [drawing 1282]
5 | – | 20 nM | O=C(NCCc1cccc(Cl)c1)c1ccc2c(c1)N=C(c1ccc(Cl)cc1)c1ccccc1S2 [drawing 1283]
6 | 84% | 20 nM | CCCNC(=O)c1ccc2c(c1)N=C(c1cccc(F)c1)c1ccccc1S2 [drawing 1286]
7 | – | 2 nM | O=C(NCc1ccc(F)cc1)c1ccc2c(c1)N=C(c1ccc(Cl)cc1)c1ccccc1S2 [drawing 1287]
8 | – | 2 nM | CC(CNC(=O)c1ccc2c(c1)N=C(c1ccc(Cl)cc1)c1ccccc1S2)c1ccccc1 (centres unmarked) [drawing 1288]
9 | – | 20 nM | O=C(NCc1ccccc1Cl)c1ccc2c(c1)N=C(c1ccc(F)cc1)c1ccccc1S2 [drawing 1291]
10 | – | 20 nM | CCCC1=Nc2cc(C(=O)NCCN(CC)c3ccccc3)ccc2Sc2ccccc21 [drawing 1292]
11 | 97% | 20 nM | O=C(NCCc1cccnc1)c1ccc2c(c1)N=C(c1cccc(Cl)c1)c1ccccc1S2 [drawing 1293]
12 | 77% | 20 nM | O=C(NCc1ccncc1)c1ccc2c(c1)N=C(c1ccc(Cl)cc1)c1ccccc1S2 [drawing 1294]
13 | – | 2.51 nM | O=C(NCCc1ccccc1)c1ccc2c(c1)N=C(c1ccc(Cl)cc1)c1ccccc1S2 [drawing 1295]
14 | – | 2.51 nM | CCN(CCNC(=O)c1ccc2c(c1)N=C(C1CCCCC1)c1ccccc1S2)c1ccccc1 [drawing 1296]
15 | – | 2.51 nM | CCN(CCNC(=O)c1ccc2c(c1)N=C(c1ccc(F)cc1)c1ccccc1S2)c1ccccc1 [drawing 1297]
16 | – | 20 nM | O=C(NCc1ccc(F)cc1)c1ccc2c(c1)N=C(c1ccccc1F)c1ccccc1S2 [drawing 1299]
17 | – | 20 nM | CCCCNC(=O)c1ccc2c(c1)N=C(c1ccccc1)c1ccccc1S2 [drawing 1300]
18 | – | 20 nM | O=C(NCc1ccc(F)cc1)c1ccc2c(c1)N=C(c1ccc(Cl)cc1)c1ccccc1[S+]2[O-] (centres unmarked) [drawing 1301]

Row | Binding rat Inh % | Ki | SMILES
19 | – | 20 nM | CCN(CCNC(=O)c1ccc2c(c1)N=C(c1ccccc1F)c1ccccc1S2)c1ccccc1 [drawing 1302]
20 | 90% | 2.51 nM | CC(C)CNC(=O)c1ccc2c(c1)N=C(c1ccsc1)c1ccccc1S2 [drawing 1303]
21 | – | 2.51 nM | CC(CNC(=O)c1ccc2c(c1)N=C(c1cccc(Cl)c1)c1ccccc1S2)c1ccccc1 (centres unmarked) [drawing 1304]
22 | 96% | 2.51 nM | O=C(NN1CCCCC1)c1ccc2c(c1)N=C(c1ccc(Cl)c(Cl)c1)c1ccccc1S2 [drawing 1305]
23 | 84% | 3.16 nM | O=C(NC1CCCCC1)c1ccc2c(c1)N=C(c1cccc(F)c1)c1ccccc1S2 [drawing 1306]
24 | 90% | 20 nM | CC(C)CNC(=O)c1ccc2c(c1)N=C(c1ccccc1F)c1ccccc1S2 [drawing 1307]
25 | 91% | 20 nM | Cc1cccc(C2=Nc3cc(C(=O)NCCC(F)(F)F)ccc3Sc3ccccc32)n1 [drawing 1308]
26 | 82% | 25.1 nM | O=C(NC1CCCC1)c1ccc2c(c1)N=C(c1cccc(F)c1)c1ccccc1S2 [drawing 1310]
27 | 106% | 3.16 nM | Cc1csc(CNC(=O)c2ccc3c(c2)N=C(c2ccsc2)c2ccccc2S3)c1 [drawing 1313]
28 | – | 25.1 nM | O=C(NCc1cccc(Cl)c1)c1ccc2c(c1)N=C(N1CCCCC1)c1ccccc1[S+]2[O-] (centres unmarked) [drawing 1315]
29 | – | 25.1 nM | O=C(NCc1ccc(F)cc1)c1ccc2c(c1)N=C(c1ccc(Cl)cc1)c1ccccc1S2(=O)=O [drawing 1316]
30 | 86% | 25.1 nM | CCCCNC(=O)c1ccc2c(c1)N=C(c1ccc(Cl)cn1)c1ccc(F)cc1S2 [drawing 1317]
31 | 73% | 25.1 nM | O=C(NCc1cccnc1)c1ccc2c(c1)N=C(c1ccccc1F)c1ccccc1S2 [drawing 1318]
32 | 87% | 3.16 nM | CC(C)CNC(=O)c1ccc2c(c1)N=C(c1ccc(F)cc1)c1ccccc1S2 [drawing 1319]
33 | 96% | 3.16 nM | Cc1ccc(CNC(=O)c2ccc3c(c2)N=C(c2ccc(Cl)c(Cl)c2)c2ccccc2S3)o1 [drawing 1320]
34 | 100% | 3.16 nM | O=C(NN1CCCCC1)c1ccc2c(c1)N=C(c1ccc(F)c(Cl)c1)c1ccccc1S2 [drawing 1321]
35 | 76% | 25.1 nM | CCOCCNC(=O)c1ccc2c(c1)N=C(c1cccc(Br)c1)c1ccccc1S2 [drawing 1323]
36 | – | 25.1 nM | O=C(NCc1ccccc1Cl)c1ccc2c(c1)N=C(c1ccccc1)c1ccccc1S2 [drawing 1324]

The remaining lines, values behind:

Row | SMILES | Binding rat Inh % | Ki
37 | O=C(NCCC(F)(F)F)c1ccc2c(c1)N=C(c1cccc(Cl)c1)c1ccccc1S2 [drawing 1250] | 88% | 1 nM
38 | Cc1ccsc1C1=Nc2cc(C(=O)NCCC(C)C)ccc2Sc2ccccc21 [drawing 1251] | 88% | 15.8 nM
39 | O=C(NCc1ccco1)c1ccc2c(c1)N=C(c1cccc(F)c1)c1ccccc1S2 [drawing 1252] | 93% | 15.8 nM
40 | O=C(NCc1ccccc1)c1ccc2c(c1)N=C(N1CCCCC1)c1ccccc1S2 [drawing 1253] | – | 15.8 nM
41 | CC(C)CNC(=O)c1ccc2c(c1)N=C(c1ccc(F)cn1)c1ccccc1S2 [drawing 1254] | 97% | 15.8 nM
42 | Cc1csc(CNC(=O)c2ccc3c(c2)N=C(c2sccc2C)c2ccccc2S3)c1 [drawing 1255] | 93% | 1 nM
43 | O=C(NCc1cccs1)c1ccc2c(c1)N=C(c1ccc(Cl)s1)c1ccccc1S2 [drawing 1256] | 98% | 1.26 nM
44 | O=C(NCc1cccc(Cl)c1)c1ccc2c(c1)N=C(c1ccc(Cl)cc1)c1ccccc1S2 [drawing 1257] | – | 1.26 nM
45 | O=C(NC1CCC(F)(F)CC1)c1ccc2c(c1)N=C(c1ccc(F)cc1)c1ccccc1S2 [drawing 1258] | 94% | 1.26 nM
46 | CCCNC(=O)c1ccc2c(c1)N=C(c1ccc(Br)cc1)c1ccccc1S2 [drawing 1259] | 65% | 15.8 nM
47 | O=C(NCc1cccnc1)c1ccc2c(c1)N=C(c1ccc(Cl)cc1)c1ccccc1S2 [drawing 1260] | 76% | 15.8 nM
48 | C[C@@H]1CCC[C@H](C)N1NC(=O)c1ccc2c(c1)N=C(c1cccc(F)c1)c1ccccc1S2 [drawing 1261] | 91% | 20 nM
49 | CCCNC(=O)c1ccc2c(c1)N=C(c1ccc(F)cc1)c1ccccc1S2 [drawing 1262] | 87% | 20 nM
50 | Cc1csc(CNC(=O)c2ccc3c(c2)N=C(c2cccc(C)n2)c2ccccc2S3)c1 [drawing 1263] | 94% | 1.58 nM
51 | O=C(NCc1cccc(Cl)c1)c1ccc2c(c1)N=C(c1cccc(Cl)c1)c1ccccc1S2 [drawing 1264] | – | 1.58 nM
52 | Cc1ccsc1C1=Nc2cc(C(=O)NC3CCC(F)(F)CC3)ccc2Sc2ccccc21 [drawing 1265] | 93% | 1.58 nM
53 | O=C(NCc1cccc(Cl)c1)c1ccc2c(c1)N=C(c1ccc(F)cc1)c1ccccc1S2 [drawing 1266] | – | 1.58 nM

Row | SMILES | Binding rat Inh % | Ki
54 | CCCCNC(=O)c1ccc2c(c1)N=C(c1ccc(Cl)s1)c1ccc(F)cc1S2 [drawing 1267] | 93% | 20 nM
55 | O=C(NC1CCCC1)c1ccc2c(c1)N=C(c1ccc(F)cc1)c1ccccc1S2 [drawing 1268] | 84% | 20 nM
56 | CC(C)NC(=O)c1ccc2c(c1)N=C(c1cccc(Cl)c1)c1ccccc1S2 [drawing 1269] | 83% | 20 nM
57 | O=C(NCc1ccccn1)c1ccc2c(c1)N=C(c1ccc(Cl)cc1)c1ccccc1S2 [drawing 1270] | 112% | 20 nM
58 | O=C(NCc1cccs1)c1ccc2c(c1)N=C(c1cccc(Cl)c1)c1ccccc1S2 [drawing 1272] | 109% | 2 nM
59 | O=C(NCCC(F)(F)F)c1ccc2c(c1)N=C(c1ccc(Cl)s1)c1ccccc1S2 [drawing 1273] | 85% | 2 nM
60 | CCCCNC(=O)c1ccc2c(c1)N=C(c1ccc(Cl)c(F)c1)c1ccccc1S2 [drawing 1274] | 96% | 2 nM
61 | O=C(NCc1ccccc1Br)c1ccc2c(c1)N=C(N1CCCCC1)c1ccccc1S2 [drawing 1275] | – | 20 nM
62 | CCCNC(=O)c1ccc2c(c1)N=C(c1ccc(Cl)cc1F)c1ccccc1S2 [drawing 1276] | 98% | 20 nM
63 | Cc1ccsc1C1=Nc2cc(C(=O)NCc3ccco3)ccc2Sc2ccccc21 [drawing 1277] | 85% | 20 nM
64 | O=C(NCc1cccnc1)c1ccc2c(c1)N=C(c1cccc(Br)c1)c1ccccc1S2 [drawing 1278] | 80% | 20 nM
65 | CCCC1=Nc2cc(C(=O)NC3CCCC(C)C3C)ccc2Sc2ccccc21 (centres unmarked) [drawing 1284] | – | 20 nM
66 | CCCC1=Nc2cc(C(=O)NCCc3ccc(Cl)cc3)ccc2Sc2ccccc21 [drawing 1285] | – | 20 nM
67 | CCN(CCNC(=O)c1ccc2c(c1)N=C(c1cccc(Cl)c1)c1ccccc1S2)c1ccccc1 [drawing 1298] | – | 2.51 nM
68 | CCCCNC(=O)c1ccc2c(c1)N=C(c1ccc(Cl)c(Cl)c1)c1ccccc1S2 [drawing 1311] | 94% | 3.16 nM
69 | CC(C)CNC(=O)c1ccc2c(c1)N=C(c1ccc(Cl)cc1)c1ccccc1S2 [drawing 1314] | 92% | 3.16 nM
70 | O=C(NCCc1ccccc1)c1ccc2c(c1)N=C(c1cccc(Cl)c1)c1ccccc1S2 [drawing 1322] | – | 3.16 nM
